Source: patent publication US9018440B2, “Fluorescent mouse model” (Stowers Institute for Medical Research, priority 2006, dated 2015)

Tests used:
[1] = test system: G-protein coupled muscarinic acetylcholine receptors; assay: Acetylcholine challenge of HEK 293 cells co-transfected with TetO-G-CaMP2 and CMV-VP22-tTA, G-CaMP2 fluorescence; assay type: cell-based, human; details: 10 μM acetylcholine, HEK 293 TetO-G-CaMP2 + CMV-VP22-tTA, excited at 488 nm
Experimental: Cells co-transfected with the two plasmids show fluorescence, while cells with only one of the plasmids, or neither, are not fluorescent (Control, FIG. 1A). The addition of 10 μM acetylcholine (ACH) induces a subpopulation of cells to respond with increases in fluorescence (FIG. 1B). Acetylcholine activates G-protein coupled muscarinic acetylcholine receptors and mobilizes intracellular calcium. Arrows point to three of the responsive cells (a, b, and c of both FIGS. 1A and 1B).
(AFU: artificial fluorescence unit).
Human embryonic kidney cells (HEK 293) were co-transfected with TetO-G-CaMP2 and a construct containing a tetracycline transactivator protein under the control of a ubiquitous promoter (CMV-VP22-tTA). […] The change in fluorescence indicated proper function of the G-CaMP2 sensor combined with the tetracycline inducible system.

[2] = test system: glomeruli / sensory neurons of the olfactory bulb; assay: Odor stimulation of OMP-tTA-G-CaMP2 compound transgenic mice, fluorescence imaging of olfactory bulb; assay type: in vivo, mouse; details: for subset of sensory neurons / glomeruli activated by odor: different odors alone or combined, FIGS. 9 and 12; for activation of G-CaMP2 fluorescence in glomeruli by odor: odor delivered to the nose, thinned skull, FIG. 5; for course of G-CaMP2 intensity as the activation sequence progressed: FIGS. 10E and 11E; for sequence of glomeruli activation over length of odor exposure: FIGS. 10 and 11
Experimental: The compound transgenic mice (“transgenic mice”) containing the G-CaMP2 indicator targeted to the olfactory neurons may be used to evaluate neuron stimulation and map the signals sent in the brain. The response of sensory neurons was analyzed by stimulating transgenic mice with odor of varying concentrations. After anesthetizing mice with an injection of ketamine, the skin over the olfactory bulb was removed and the underlying skull covering the olfactory bulb was surgically thinned. The mice were then secured on an imaging plate and placed underneath a fluorescent microscope for imaging analysis. Background fluorescence was detected before odor stimulation (FIG. 5A). […] Amyl Acetate of various concentrations was also delivered to the nose of the animals using a custom made olfactometer. […] Odor delivery excited the sensory neurons, which generated action potentials that reached both olfactory bulbs.
The concentration of odor presented also activated glomeruli in a dose dependent manner (FIGS. 12C and 12D).
Animals are anesthetized with Ketamin/Xylazine cocktail and the righting reflex of the hind limbs are tested prior to surgery. Once deeply anesthetized, the hair over the head is shaved with a razor blade and a midline incision is made in the skin covering the skull to expose the olfactory bulb. For direct imaging, a head holder is glued to the bone and the animal is mounted to the microscope stage with the olfactory bulb region positioned right under the lens. (FIGS. 9 and 10). For bone thinning imaging, micro dental tools wet with saline are used to scrape the surface of the bone covering the olfactory bulb. Occasional air puffs are used to cool the thinning surface to prevent heat damage of the brain tissue. We normally stop when the bone can be indented by the gentle tough of a forceps tip, which is about 50 μm thick. The surface is then gently cleaned with saline and the head holder is attached for mounting the animal to the microscope.

## CC(=O)OCC[N+](C)(C)C [acetylcholine]
[1]; FIG. 2A
  increase in fluorescence, cell A: approximately 90 AFU
[1]; FIG. 2B
  increase in fluorescence, cell B: approximately 95 AFU
[1]; FIG. 2C
  increase in fluorescence, cell C: approximately 50 AFU

## CCCCCOC(C)=O [amyl acetate]
[2]
  subset of sensory neurons / glomeruli activated by odor: activated different neurons
  activation of G-CaMP2 fluorescence in glomeruli by odor: several glomeruli activating G-CaMP2 fluorescence
[2]; various concentrations, olfactometer, FIG. 6
  response of right and left olfactory bulbs to various odor concentrations: both the right and left olfactory bulbs were similarly stimulated

## CCCC=O [butyraldehyde]
[2]
  course of G-CaMP2 intensity as the activation sequence progressed: continued to increase
  sequence of glomeruli activation over length of odor exposure: sequentially activated glomeruli
  subset of sensory neurons / glomeruli activated by odor: activated

## CCCCCC(=O)O [hexanoic acid]
[2]
  subset of sensory neurons / glomeruli activated by odor: activated

## CCCCCCCC=O [octanal]
[2]
  course of G-CaMP2 intensity as the activation sequence progressed: decrease in G-CaMP2 expression
  sequence of glomeruli activation over length of odor exposure: activated several different glomeruli sequentially
  activation of G-CaMP2 fluorescence in glomeruli by odor: response of several glomeruli to activate G-CaMP2 fluorescence
